Test results published in patent publication US20230390315A1, “COMPOSITIONS AND METHODS FOR TREATING ISCHEMIC CONDITIONS” (The Regents of the University of California, priority 2020, published 2023).

Tests used:
[1] = tested on: BCEC confluent monolayers; assay: BCEC scratch assay; format: cell-based, bovine
Description: BCECs (passage 6-10) and HUVEC (passage 6-8) were used in this assay. Cells were grown until about 80% confluency in 6-well plates, washed twice with PBS and then starved in serum-free DMEM (low Glucose, Hyclone) for 5 hrs before making a “scratch” using 1 ml tip. Cell monolayers were briefly washed once with serum-free media, followed by various treatments in media containing 1% FBS. 48 hrs later, the assay was stopped by adding 2 ml 4% paraformaldehyde. 20 min later, fixed cells were stained with 1 ml Crystal Violet (Sigma). Plates were washed gently under the running tap water and air-dried before taking pictures. Images were acquired by ZEISS Discovery […] microscopy equipped with […] camera. Quantification of wound closure was done using AxioVision LE Rel.4.4 software. Six images were taken for each sample and six measurements (in pixel) were made on each image using AxioVision LE Rel.4.4 software.

ischemic hindlimb = assay: Hindlimb ischemia model and blood flow; format: in vivo, mouse; conditions: for blood perfusion ratio, of sham-treatment limbs: 3 weeks; for blood vessel density compared with H2O-treated control (CD31): 3 weeks post-ligation; for blood flow recovery (perfusion ratio): one week after surgery, 20% ManN oral or 1 mg/ml Kif ip every other day
Description: C57BL/6 male mice (6-8 weeks old) were subjected to unilateral hindlimb surgery under anesthesia with ketamine/xylazine cocktail. Briefly, the left femoral artery was separated from the vein and nerve, ligated proximally, and excised. The right hindlimb served as control. Blood flow was measured by using a laser Doppler perfusion imager (PeriScan PSI; Perimed). Ischemic and nonischemic limb perfusion was measured before and after surgery and 1, 2 and 3 weeks later. After surgery, mice were randomly allocated to different groups (8 mice for each group). 200 μl of 20% ManN was orally administrated every other day from 3rd day after surgery. 200 μl of 1 mg/ml Kif was administrated through ip injection every other day. H2O was used as a vehicle control. The final blood flow values were expressed as the ratio of ischemic to nonischemic hindlimb perfusion from the same animal. Quantification of blood vessel area was carried out as described.

retinal vasculature = assay: Retinal neovascularization after intravitreal injection; format: in vivo, mouse; conditions: intravitreal 500 ng ManN or Kif, 200 ng bFGF; seven days
Description: Assessment of retinal angiogenesis following intravitreal administration was done. Briefly, 6-8 weeks old C57BL/6 male mice were randomly allocated to different groups and anesthetized with ketamine/Xylazine cocktail. The indicated amounts of ManN, Kif or bFGF (R&D systems, AF-233-NA) in 1 μl of PBS and PBS vehicle control were injected intravitreally with a 33-gauge Hamilton syringe. Seven days after injection, animals were euthanized. Eyes were then enucleated and fixed in 4% paraformaldehyde (PFA) for 30 mins. Retinas were separated and stained with anti-CD31 immunofluorescence (IF) to evidence the vasculature. Evaluations were performed by an investigator blinded to the treatment. For CD31 IF, rat anti-mouse antibody (BD Biosciences, CAT #550274) was diluted 1:100 and incubated overnight at 4° C. After 4-hour incubation with the Alexa Fluor-488-conjugated anti-rat antibody (Life Technologies, A11006), whole mounts were imaged via the 488 nm channel using A1R Confocal STORM super-resolution system (Nikon). Quantification of vascular density in choroids and retina was carried out by Image J. Each experiment was repeated three times with similar results, and each treatment group consists of 5 individual samples.

VEGFR2 = assay: Western blot of VEGFR2 molecular mass in BCECs and BRECs; format: cell-based, bovine
Description: Glycerol-free PNGase F was obtained from New England Biolabs (Ipswich, MA). Briefly, BCECs were lysed with NP-40 containing proteinase inhibitors (Thermo Scientific, Waltham, MA). Lysates were cleared at 4° C. at 5000 g for 25 mins. Total protein content was measured using Pierce BCA protein assay kit (ThermoScientific). […] of protein was mixed with 10× denaturing buffer and H2O to a total volume of […]. Glycoproteins were denatured at 100° C. for 10 mins, followed by adding Glycobuffer and PNGase F. The reaction was carried out at 37° C. for 2 hr.
(§1) Cells were allowed to reach ˜80% confluency in 12-well plates. […] At various time points, plates were taken out of the incubator and kept on ice. Cell monolayers were first washed once with ice-cold PBS before lysis with 250 μl of Pierce RIPA buffer (ThermoFisher Scientific, Rockford, IL) or use 50 mM Tris-HCl (pH 7.6), 150 mM NaCl, 10% Glycerol, 1% NP-40 containing protease/Phosphatase inhibitor cocktail (100×) (Cell signaling, #5872). Lysates were collected and mixed with 4×Bolt LDS Sample Buffer (Novex, Carlsbad, CA) in the presence of Halt protease inhibitors and phosphatase inhibitor cocktail (ThermoFisher scientific, #NP0007). The samples were subjected to SDS-PAGE (Bolt 4-12% Bis-Tris Plus, Invitrogen) using Bolt MES SDS running buffer or NuPAGE 3-8% Tris-Acetate gel using Tris-Acetate SDS running buffer (Novex). HUVECs (passage 6-8) were plated in EBM-2 basal medium (Lonza) with 0.2% FBS. […] Equal amounts of protein lysates were analyzed by SDS-PAGE and blotted with the indicated antibodies. Proteins were transferred using Tris-Glycine buffer with 20% Methanol (Proteonomics grade) (Apex BioResearch Products). Membranes were first incubated with 5% milk in TBST, pH 7.6 (TEKnova, Hollister, CA), followed by blotting with primary and secondary antibodies. ECL anti-rabbit IgG, horseradish peroxidase linked whole antibody from donkey or sheep anti-mouse were obtained from GE Healthcare (UK limited). SuperSignal West Dura Extended Duration substrate was from ThermoFisher Scientific. In some cases, the same PVDF membranes were stripped by 8-min incubation in the Restore Plus Western Blot Stripping Buffer (ThermoFisher Scientific) to show total specific protein expression, followed by second stripping for β-actin expression.

Bip, CHOP and ATF-6 = assay: Western blot of UPR responsive proteins in BCECs; format: cell-based, bovine
Description: as §1

Row | Structure (SMILES) | closure of the scratched area compared to control ([1]; 40 uM ManN or 50 ng/ml of VEGF, after 48 hours) | additivity of ManN and VEGF in scratch assay ([1]; both ManN and VEGF) | blood perfusion ratio, of sham-treatment limbs (ischemic hindlimb) [%] | blood vessel density compared with H2O-treated control (CD31) (ischemic hindlimb) [times] | blood flow recovery (perfusion ratio) (ischemic hindlimb) | increase in density of retinal vessels compared to PBS group (retinal vasculature) [%] | duration of ManN effects on protein mass in the absence of exogenous ManN (VEGFR2; BCECs) | concentration at which VEGFR2 molecular mass shift starts (VEGFR2; BCECs and BRECs) [µM] | effect on apparent molecular mass of VEGFR2 (VEGFR2; BCECs and BRECs) | new lower molecular weight VEGFR2 bands (VEGFR2; BCECs, control major band ~230 KDa, minor ~210 KDa) | extent of loss of VEGFR2 glycosylation (PNGase F treatment) (VEGFR2; ManN at uM concentrations) | reversibility of effects on VEGFR2 molecular mass after ManN removal (VEGFR2; after 24 hours) | synergy between ManN and VEGF in promoting Bip or CHOP expression (Bip, CHOP and ATF-6) | time at which accumulation of Bip is evident (Bip, CHOP and ATF-6) [h] | time of CHOP induction (Bip, CHOP and ATF-6; dose-dependent) | Bip expression (Bip, CHOP and ATF-6; growing cells deprived of growth factor supply) | activity of glycosylation inhibitors in BCEC scratch assay ([1]; over 48 hours relative to control) | VEGFR2 molecular mass after glycosylation inhibitor treatment (VEGFR2; 24 hours, SDS-PAGE) | Bip expression with glycosylation inhibitors (Bip, CHOP and ATF-6; media without growth factors for 24 hours)
1 | N[C@H](C=O)[C@@H](O)[C@H](O)[C@H](O)CO [ManN, 2-Amino-2-deoxy-D-mannose] | significantly accelerated | additivity was observed | ~50 | 2.3 | about 40% | ~30 | at least 8 hours | 40 | shifted significantly | 170-200 KDa | not all the glycosylation on VEGFR2 was abolished | completely reverse | No synergy | 24 | about 6 hours | significantly turn on Bip expression in a concentration-dependent manner | – | – | –
2 | O=C1N[C@@H]2[C@@H](O)[C@@H](O)[C@H](O)[C@@H](CO)N2C1=O [Kif, Kifunensine, reference compound] | – | – | ~50 | 1.8 | ~47% | ~20 | – | – | – | – | – | – | – | – | – | – | significant activity | reduction in VEGFR2 molecular mass | dose-dependent induction of Bip expression
